Assay results from patent publication US9212168B2 (priority 2011, dated 2015).
pEC50: −log10 of the molar value.

Experiments:
HCV genotype 1b replicon = HCV genotype 1b replicon assay (Renilla luciferase readout); type: cell-based, hepatitis C virus; settings: for Genotype 1b: HCV genotype 1b replicon; for pEC50: Hepatitis C virus, read-out: Genotype 1b
How it was run: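 Reported as pEC50 derived from a 4-parameter fit of Renilla luciferase activity against concentration. Replicon cells (APC144, Huh7 background) were exposed to compound for 48 h in G418-free medium with final 0.5% DMSO, after seeding at 10,000 cells/well and 4 h adherence.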

HCV genotype 1a replicon = HCV genotype 1a replicon assay (NS3 protease activity readout); type: cell-based, hepatitis C virus; settings: for Genotype 1a: HCV genotype 1a replicon; for pEC50: Hepatitis C virus, read-out: Genotype 1a, HCV genotype 1a replicon
How it was run: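 EC50 values came from a 4-parameter robust fit of fluorescence (ex 340, em 509 nm) produced by NS3-specific protease in lysates, assayed with 15 μM FRET substrate for 20 min at 37° C, after 48 or 72 hours of compound exposure (0.5% DMSO) of Huh7.5-derived APC89 genotype 1a replicon cells.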

Row | Compound | Genotype 1b (HCV genotype 1b replicon) | Genotype 1a (HCV genotype 1a replicon) | pEC50 (HCV genotype 1b replicon) | pEC50 (HCV genotype 1a replicon)
1 | COC(=O)N[C@H](C(=O)N1C[C@@H](C)C[C@H]1c1nc(-c2ccc(-c3cc(Cl)c(C(=O)Nc4ccc(N5CCN(C(=O)[C@H]6CC6(C)C)C[C@H]5C)nc4)cc3OC(F)(F)F)cc2)c[nH]1)C1CCOCC1 [Example 22-5] | D (D represents pEC50>10 (EC50<0.1 nM)) | D (D represents pEC50>10 (EC50<0.1 nM)) | – | –
2 | COC(=O)N[C@H](C(=O)N1C[C@@H](N(C)C)C[C@H]1c1nc(-c2ccc(-c3ccc(NC(=O)c4ccc(N5CCN(C(=O)c6c[nH]cn6)C[C@H]5C)nc4)cc3)cc2)c[nH]1)C(C)C [Example 2-1] | D (D represents pEC50>10 (EC50<0.1 nM)) | C (C represents pEC50 between and 9 and about 10, (EC50 between 1 nM and 0.1 nM)) | – | –
3 | COC(=O)N[C@H](C(=O)N1C[C@@H](C)C[C@H]1c1nc(-c2ccc(-c3ccc(C(=O)Nc4ccc(N5C[C@H](C)N(C(=O)[C@H]6CC6(C)C)C[C@H]5C)nc4)cc3OC(F)(F)F)cc2)c(Cl)[nH]1)C(C)C [Example 4-10] | D (D represents pEC50>10 (EC50<0.1 nM)) | D (D represents pEC50>10 (EC50<0.1 nM)) | – | –
4 | COC(=O)N[C@H](C(=O)N1C[C@@H](OC)C[C@H]1c1nc(-c2ccc(-c3cc(Cl)c(NC(=O)c4ccc(N5C[C@H](C)N(C(=O)[C@]6(C)CCCN6C(=O)OC)C[C@H]5C)nc4)cc3OC(F)(F)F)cc2)c[nH]1)C1CCOCC1 [Example 28-18] | D (D represents pEC50>10 (EC50<0.1 nM)) | D (D represents pEC50>10 (EC50<0.1 nM)) | – | –
5 | CNC(=O)N1CCN(c2ccc(C(=O)Nc3cc(OC(F)(F)F)c(-c4ccc(-c5c[nH]c([C@@H]6C[C@H](C)CN6C(=O)[C@@H](NC(=O)OC)C(C)C)n5)cc4)cc3F)cn2)[C@H](C)C1 [Example 1-1] | D (D represents pEC50>10 (EC50<0.1 nM)) | D (D represents pEC50>10 (EC50<0.1 nM)) | – | –
6 | COC(=O)N[C@H](C(=O)N1[C@@H](C)CC[C@H]1c1nc(-c2ccc(-c3cc(Cl)c(NC(=O)c4ccc(N5CCN(C(=O)C(C)(C)C)C[C@H]5C)nc4)cc3OC(F)(F)F)cc2)c[nH]1)C(C)C [Example 17-3] | D (D represents pEC50>10 (EC50<0.1 nM)) | D (D represents pEC50>10 (EC50<0.1 nM)) | – | –
7 | [2H]C([2H])([2H])C1(C([2H])([2H])[2H])CC1C(=O)N1CCN(c2ccc(C(=O)Nc3cc(OC(F)(F)F)c(-c4ccc(-c5c[nH]c([C@@H]6C[C@H](C)CN6C(=O)[C@@H](NC(=O)OC)C(C)C)n5)cc4)cc3F)cn2)[C@H](C)C1 (some centres unmarked) [Example 1-92] | D (D represents pEC50>10 (EC50<0.1 nM)) | D (D represents pEC50>10 (EC50<0.1 nM)) | – | –
8 | COC(=O)N[C@H](C(=O)N1C[C@@H](C)C[C@H]1c1nc(-c2ccc(-c3cc(Cl)c(NC(=O)c4ccc(N5CCN(C(=O)c6c[nH]cn6)C[C@H]5C)nc4)cc3OC(F)(F)F)cc2)c[nH]1)C(C)C [Example 1-18] | D (D represents pEC50>10 (EC50<0.1 nM)) | D (D represents pEC50>10 (EC50<0.1 nM)) | – | –
9 | COC(=O)N[C@H](C(=O)N1C[C@@H](SC)C[C@H]1c1nc(-c2ccc(-c3cc(Cl)c(C(=O)Nc4ccc(N5CCN(C(=O)C(C)(C)C)C[C@H]5C)nc4)cc3OC(F)(F)F)cc2)c[nH]1)C(C)C [Example 5-3] | – | – | > 10.00 | > 10.00
10 | COC(=O)N[C@H](C(=O)N1C[C@@H](C)C[C@H]1c1nc(-c2ccc(-c3ccc(C(=O)Nc4ccc(N5CCN(C(=O)[C@]6(C)CCCN6C(=O)[C@H](NC(=O)OC)C(C)C)C[C@H]5C)nc4)cc3OC(F)(F)F)cc2)c[nH]1)C(C)C [Example 4-7] | D (D represents pEC50>10 (EC50<0.1 nM)) | D (D represents pEC50>10 (EC50<0.1 nM)) | – | –
11 | COCC1(C(=O)N2CCN(c3ccc(C(=O)Nc4cc(OC(F)(F)F)c(-c5ccc(-c6c[nH]c([C@@H]7C[C@H](OC)CN7C(=O)[C@@H](NC(=O)OC)C7CCOCC7)n6)cc5)cc4Cl)cn3)[C@H](C)C2)CC1 [Example 28-21] | D (D represents pEC50>10 (EC50<0.1 nM)) | D (D represents pEC50>10 (EC50<0.1 nM)) | – | –
12 | COC(=O)N[C@H](C(=O)N1C[C@@H](C)C[C@H]1c1nc(-c2ccc(-c3ccc(C(=O)Nc4ccc(N5CCN(C(=O)[C@H]6CC6(C)C)C[C@H]5C)nc4)cc3OC(F)(F)F)cc2)c[nH]1)C1CCOCC1 [Example 22-4] | D (D represents pEC50>10 (EC50<0.1 nM)) | D (D represents pEC50>10 (EC50<0.1 nM)) | – | –
13 | COC(=O)N[C@H](C(=O)N1C[C@@H](OC)C[C@H]1c1nc(-c2ccc(-c3cc(Cl)c(NC(=O)c4ccc(N5CCN(C(=O)C(C)(C)C)C[C@H]5C)nc4)cc3OC(F)(F)F)cc2)c(CO)[nH]1)C1CCOCC1 [Example 28-15] | D (D represents pEC50>10 (EC50<0.1 nM)) | D (D represents pEC50>10 (EC50<0.1 nM)) | – | –
14 | COC(=O)N[C@H](C(=O)N1C[C@@H](C)C[C@H]1c1nc(-c2ccc(-c3cc(Cl)c(C(=O)Nc4ccc(N5CCN(C(=O)C(C)(C)C)C[C@@H]5C)nc4)cc3OC(F)(F)F)cc2)c[nH]1)C1CCOCC1 [24-1] | D (D represents pEC50>10 (EC50<0.1 nM)) | C (C represents pEC50 between and 9 and about 10, (EC50 between 1 nM and 0.1 nM)) | – | –
15 | COC(=O)N[C@H](C(=O)N1C[C@@H](OC)C[C@H]1c1nc(-c2ccc(-c3cc(Cl)c(C(=O)Nc4ccc(N5CCN(C(=O)C(C)(C)C)C[C@H]5C)nc4)cc3OC(F)(F)F)cc2)c[nH]1)C1CCOCC1 [Example 22-16] | D (D represents pEC50>10 (EC50<0.1 nM)) | D (D represents pEC50>10 (EC50<0.1 nM)) | – | –
16 | COC(=O)N[C@H](C(=O)N1C[C@@H](C#N)C[C@H]1c1nc(-c2ccc(-c3cc(Cl)c(NC(=O)c4ccc(N5CCN(C(=O)C(C)(C)C)C[C@H]5C)nc4)cc3OC(F)(F)F)cc2)c[nH]1)C(C)C [Example 15-11] | – | – | > 10.00 | > 10.00
17 | COC(=O)N[C@H](C(=O)N1C[C@@H](OC)C[C@H]1c1nc(-c2ccc(-c3cc(Cl)c(NC(=O)c4ccc(N5C[C@H](C)N(C(=O)[C@H]6CC6(C)C)C[C@H]5C)nc4)cc3OC(F)(F)F)cc2)c[nH]1)C1CCOCC1 [Example 28-6] | D (D represents pEC50>10 (EC50<0.1 nM)) | D (D represents pEC50>10 (EC50<0.1 nM)) | – | –
18 | COC(=O)N[C@H](C(=O)N1C[C@@H](SC)C[C@H]1c1nc(-c2ccc(-c3ccc(C(=O)Nc4ccc(N5CCN(C(=O)[C@]6(C)CCCN6C(=O)[C@@H](NC(=O)OC)C(C)C)C[C@H]5C)nc4)cc3OC(F)(F)F)cc2)c[nH]1)C(C)C [Example 6-9] | – | – | > 10.00 | > 10.00
19 | COC(=O)N[C@H](C(=O)N1C[C@@H](C)C[C@H]1c1nc(-c2ccc(-c3cc(Cl)c(NC(=O)c4ccc(N5CCN(C(=O)C(C)(C)CO)C[C@H]5C)nc4)cc3OC(F)(F)F)cc2)c[nH]1)[C@H](C)O [Example 13-17] | – | – | > 10.00 | > 10.00
20 | COC(=O)N[C@H](C(=O)N1C[C@@H](C)C[C@H]1c1nc(-c2ccc(-c3ccc(C(=O)Nc4ccc(N5CCN(C(=O)C(C)(C)C)C[C@H]5C)nc4)cc3OC(F)(F)F)cc2)c[nH]1)C1CCOCC1 [Example 22-3] | D (D represents pEC50>10 (EC50<0.1 nM)) | D (D represents pEC50>10 (EC50<0.1 nM)) | – | –
21 | COC(=O)NC(C(=O)N1CC(OC)CC1c1nc(-c2ccc(-c3cc(F)c(NC(=O)c4ccc(N5CCN(C(=O)C(C)(C)C)CC5C)nc4)cc3OC(F)(F)F)cc2)c[nH]1)C(C)O (centres unmarked) [Example 16-4] | D (D represents pEC50>10 (EC50<0.1 nM)) | D (D represents pEC50>10 (EC50<0.1 nM)) | – | –
22 | COC(=O)N[C@H](C(=O)N1C[C@@H](C)C[C@H]1c1nc(-c2ccc(-c3cc(Cl)c(NC(=O)c4ccc(N5CCN(C(=O)C(C)(C)CO)C[C@H]5C)nc4)cc3OC(F)(F)F)cc2)c[nH]1)C(C)C [Example 12-8] | – | – | > 10.00 | > 10.00
23 | COC(=O)N[C@H](C(=O)N1C[C@@H](N(C)C)C[C@H]1c1nc(-c2ccc(-c3ccc(NC(=O)c4ccc(N5CCN(C(=O)[C@]6(C)CCCN6C(C)=O)C[C@H]5C)nc4)cc3)cc2)c[nH]1)C(C)C [Example 2-2] | C (C represents pEC50 between and 9 and about 10, (EC50 between 1 nM and 0.1 nM)) | C (C represents pEC50 between and 9 and about 10, (EC50 between 1 nM and 0.1 nM)) | – | –
24 | COC(=O)N[C@H](C(=O)N1C[C@@H](C)C[C@H]1c1nc(-c2ccc(-c3cc(F)c(NC(=O)c4ccc(N5CCN(C(=O)C(C)(C)C)C[C@H]5C)nc4)cc3OC(F)(F)F)cc2)c[nH]1)[C@H](C)OC [Example 13-21] | – | – | > 10.00 | > 10.00
25 | COC(=O)N[C@H](C(=O)N1C[C@@H](N(C)C)C[C@H]1c1nc(-c2ccc(-c3ccc(C(=O)Nc4ccc(N5CCN(C(=O)C6CC6(C)C)C[C@H]5C)nc4)cc3)cc2)c[nH]1)C(C)C (some centres unmarked) [Example 6-5] | – | – | > 10.00 | 9.00 to 10.00
26 | COC(=O)NC(C(=O)N1C[C@@H](C)C[C@H]1c1nc(-c2ccc(-c3cc(Cl)c(NC(=O)c4ccc(N5CCN(C(=O)C(C)(C)C)C[C@H]5C)nc4)cc3C(F)(F)F)cc2)c[nH]1)C1CCS(=O)(=O)CC1 (single isomer, unassigned) [Example 19-6] | D (D represents pEC50>10 (EC50<0.1 nM)) | D (D represents pEC50>10 (EC50<0.1 nM)) | – | –
27 | COC(=O)N[C@H](C(=O)N1C[C@@H](C)C[C@H]1c1nc(-c2ccc(-c3cc(Cl)c(NC(=O)c4ccc(N5CCN(C(=O)N(C)OC)C[C@H]5C)nc4)cc3OC(F)(F)F)cc2)c[nH]1)C(C)C [Example 12-1] | – | – | > 10.00 | > 10.00
28 | COC(=O)N[C@H](C(=O)N1C[C@@H](C)C[C@H]1c1nc(-c2ccc(-c3cc(Cl)c(NC(=O)c4ccc(N5CCN(C(=O)C(C)(C)CO)C[C@H]5C)nc4)cc3OC(F)(F)F)cc2)c[nH]1)[C@H](C)OC [Example 13-18] | – | – | > 10.00 | > 10.00
